Data as given in patent publication US12344610B2, “APOL1 inhibitors and methods of use” (Maze Therapeutics, Inc., priority 2022, dated 2025).

Assays:
APOL1 G2 = biological target: T1, APOL1 G2 (Homo sapiens, UniProt O14791, DEL388-389); assay: APOL1-mediated calcium transport (calcium influx) assay, HEK T-REx/GCaMP6f/APOL1 G2 K6.3 cells, FLIPR TETRA; format: cell-based; conditions: prevention of calcium influx; geometric mean of at least 2 assay runs; † = average of a technical replicate from a single assay run
T1 construct: expressed in transfected cells; host or cells: HEK293 T-REx clonal line stably expressing GCaMP6f (HEK T-REx/GCaMP6f/APOL1 G2 K6.3), doxycycline induced
T1 sequence (O14791 with tags, fused parts or gaps DEL388-389): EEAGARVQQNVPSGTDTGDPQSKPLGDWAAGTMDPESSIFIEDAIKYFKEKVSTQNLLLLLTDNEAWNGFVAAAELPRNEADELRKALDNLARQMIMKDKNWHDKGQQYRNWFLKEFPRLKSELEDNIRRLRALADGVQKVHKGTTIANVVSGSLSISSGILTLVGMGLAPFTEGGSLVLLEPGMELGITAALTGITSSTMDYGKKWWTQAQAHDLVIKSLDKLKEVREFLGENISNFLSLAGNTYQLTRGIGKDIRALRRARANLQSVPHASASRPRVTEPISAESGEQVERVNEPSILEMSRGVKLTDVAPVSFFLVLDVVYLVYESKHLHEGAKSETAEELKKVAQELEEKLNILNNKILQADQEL
Procedure, shortened: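 A HEK293 T-REx clone stably expressing GCaMP6f had APOL1 G2 induced with doxycycline (20 ng/mL solution added) for 6 h. Cells were then washed into Ca2+-free Tyrode's buffer (pH 7.4) and preincubated with compounds (duplicate 8-point) for 10 min at room temperature. Ca2+ injection to 5 mM final produced FLIPR GCaMP fluorescence, giving AC50 for influx inhibition (geometric mean, ≥2 runs).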

[1] = test system: HEK293 cells overexpressing APOL1 G2; assay: APOL1 G2 HEK293 cell rescue assay (reversal of cell death caused by overexpression of APOL1); format: cell-based; conditions: geometric mean of at least 2 assay runs, † = single assay run
Procedure, shortened: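 Each compound tested in duplicate wells on one plate per run, with values usually the geometric mean across at least two runs on different days, occasionally from one run only. Read-out: concentration giving half-maximal rescue of APOL1 G2 overexpression-induced death of HEK293 cells.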

[2] = Homo sapiens, HEK293, HEK293 overexpressing APOL1 G2

C[C@@H](COc1ccc(S(C)(=O)=O)cc1)N1CCC2(CC1)C(=O)Nc1ccc(Cl)cc12 (single isomer, unassigned) [Compound 10]
AC50 (APOL1 G2): 1.27 µM
EC50 [1, 2]: 0.0903 µM

C[C@@H](COc1ccc(S(C)(=O)=O)cc1)N1CCC2(CC1)C(=O)Nc1ccccc12 (single isomer, unassigned) [Compound 12]
AC50 (APOL1 G2): < 0.457 µM
EC50 [1, 2]: 0.307 µM

C[C@@H](CN1CCC2(CC1)C(=O)Nc1ccccc12)Oc1ccc(S(C)(=O)=O)cc1 (single isomer, unassigned) [Compound 13]
AC50 (APOL1 G2): < 0.587 µM
EC50 [1, 2]: 3.01 µM

O=C1NCC2c3ccc(OCCN4CCC5(CC4)C(=O)Nc4ccc(Cl)cc45)cc3CCN12 (single isomer, unassigned) [Compound 116, (S) or (R)-5-chloro-1′-[2-({3-oxo-1H,2H,3H,5H,6H,10bH-imidazo[4,3-a]isoquinolin-8-yl}oxy)ethyl]-1,2-dihydrospiro[indole-3,4′-piperidin]-2-one]
AC50 (APOL1 G2): 0.466 µM
EC50 [1, 2]: 0.0818 µM

O=C1NCC2c3ccc(OCCN4CCC5(CC4)C(=O)Nc4ccc(Cl)cc45)cc3CCN12 (single isomer, unassigned) [Compound 117, (R) or (S)-5-chloro-1′-[2-({3-oxo-1H,2H,3H,5H,6H,10bH-imidazo[4,3-a]isoquinolin-8-yl}oxy)ethyl]-1,2-dihydrospiro[indole-3,4′-piperidin]-2-one]
AC50 (APOL1 G2): 0.396 µM
EC50 ([1]; HEK293 overexpressing APOL1 G2): 0.0815 µM

N#Cc1ccc2c(c1)C1(CCN(CCOc3ccc4c(c3)CCN3C(=O)NCC43)CC1)C(=O)N2 (single isomer, unassigned) [Compound 120, (R) or (S)-2-oxo-1′-[2-({3-oxo-1H,2H,3H,5H,6H,10bH-imidazo[4,3-a]isoquinolin-8-yl}oxy)ethyl]-1,2-dihydrospiro[indole-3,4′-piperidine]-5-carbonitrile]
AC50 (APOL1 G2): 1.19 µM
EC50 ([1]; HEK293 overexpressing APOL1 G2): 0.324 µM

O=C1CCC2c3ccc(OCCN4CCC5(CC4)C(=O)Nc4ccc(Cl)cc45)cc3CCN12 (single isomer, unassigned) [Compound 122, (S) or (R)-5-chloro-1′-[2-({3-oxo-1H,2H,3H,5H,6H,10bH-pyrrolo[2,1-a]isoquinolin-8-yl}oxy)ethyl]-1,2-dihydrospiro[indole-3,4′-piperidin]-2-one]
AC50 (APOL1 G2): 0.616 µM
EC50 [1, 2]: 0.0875 µM

O=C1CCC2c3ccc(OCCN4CCC5(CC4)C(=O)Nc4ccc(Cl)cc45)cc3CCN12 (single isomer, unassigned) [Compound 123, (R) or (S)-5-chloro-1′-[2-({3-oxo-1H,2H,3H,5H,6H,10bH-pyrrolo[2,1-a]isoquinolin-8-yl}oxy)ethyl]-1,2-dihydrospiro[indole-3,4′-piperidin]-2-one]
AC50 (APOL1 G2): 0.796 µM
EC50 ([1]; HEK293 overexpressing APOL1 G2): 0.0795 µM

CC(c1ccc(OCCN2CCC3(CC2)C(=O)Nc2ccc(C#N)cc23)cc1)S(C)(=O)=O (single isomer, unassigned) [Compound 134, (S) or (R)-1′-{2-[4-(1-methanesulfonylethyl)phenoxy]ethyl}-2-oxo-1,2-dihydrospiro[indole-3,4′-piperidine]-5-carbonitrile]
AC50 (APOL1 G2): 0.879 µM
EC50 [1, 2]: 0.199 µM

CC(c1ccc(OCCN2CCC3(CC2)C(=O)Nc2ccc(C#N)cc23)cc1)S(C)(=O)=O (single isomer, unassigned) [Compound 135, (R) or (S)-1′-{2-[4-(1-methanesulfonylethyl)phenoxy]ethyl}-2-oxo-1,2-dihydrospiro[indole-3,4′-piperidine]-5-carbonitrile]
AC50 (APOL1 G2): 0.763 µM
EC50 ([1]; HEK293 overexpressing APOL1 G2): 0.211 µM

CC(c1c(F)cc(OCCN2CCC3(CC2)C(=O)Nc2ccc(C#N)cc23)cc1F)S(C)(=O)=O (single isomer, unassigned) [Compound 138, (S) or (R)-1′-{2-[3,5-difluoro-4-(1-methanesulfonylethyl)phenoxy]ethyl}-2-oxo-1,2-dihydrospiro[indole-3,4′-piperidine]-5-carbonitrile]
AC50 (APOL1 G2): 1.22 µM
EC50 [1, 2]: 0.0782 µM

CC(c1c(F)cc(OCCN2CCC3(CC2)C(=O)Nc2ccc(C#N)cc23)cc1F)S(C)(=O)=O (single isomer, unassigned) [Compound 139, (R) or (S)-1′-{2-[3,5-difluoro-4-(1-methanesulfonylethyl)phenoxy]ethyl}-2-oxo-1,2-dihydrospiro[indole-3,4′-piperidine]-5-carbonitrile]
AC50 (APOL1 G2): 1.12 µM
EC50 ([1]; HEK293 overexpressing APOL1 G2): 0.133 µM

CC(c1c(F)cc(OCCN2CCC3(CC2)C(=O)Nc2ccc(Cl)cc23)cc1F)S(C)(=O)=O (single isomer, unassigned) [Compound 142, (S) or (R)-5-chloro-1′-{2-[3,5-difluoro-4-(1-methanesulfonylethyl)phenoxy]ethyl}-1,2-dihydrospiro[indole-3,4′-piperidin]-2-one]
AC50 (APOL1 G2): 0.845 µM
EC50 [1, 2]: 0.0483 µM

CC(c1c(F)cc(OCCN2CCC3(CC2)C(=O)Nc2ccc(Cl)cc23)cc1F)S(C)(=O)=O (single isomer, unassigned) [Compound 143, (R) or (S)-5-chloro-1′-{2-[3,5-difluoro-4-(1-methanesulfonylethyl)phenoxy]ethyl}-1,2-dihydrospiro[indole-3,4′-piperidin]-2-one]
AC50 (APOL1 G2): 0.701 µM
EC50 ([1]; HEK293 overexpressing APOL1 G2): 0.0369 µM

CN=S(C)(=O)c1ccc(OCCN2CCC3(CC2)C(=O)Nc2ccc(Cl)cc23)cc1 (single isomer, unassigned) [Compound 148, (S) or (R)-5-chloro-1′-(2-{4-[methyl(methylimino)oxo-λ^6-sulfanyl]phenoxy}ethyl)-1,2-dihydrospiro[indole-3,4′-piperidin]-2-one]
AC50 (APOL1 G2): 0.96 µM
EC50 [1, 2]: 0.107 µM

CN=S(C)(=O)c1ccc(OCCN2CCC3(CC2)C(=O)Nc2ccc(Cl)cc23)cc1 (single isomer, unassigned) [Compound 149, (R) or (S)-5-chloro-1′-(2-{4-[methyl(methylimino)oxo-λ^6-sulfanyl]phenoxy}ethyl)-1,2-dihydrospiro[indole-3,4′-piperidin]-2-one]
AC50 (APOL1 G2): 0.971 µM
EC50 ([1]; HEK293 overexpressing APOL1 G2): 0.101 µM

CN=S(C)(=O)c1ccc(OCCN2CCC3(CC2)C(=O)Nc2ccc(C#N)cc23)cc1 (single isomer, unassigned) [Compound 151, (S) or (R)-1′-(2-{4-[methyl(methylimino)oxo-λ^6-sulfanyl]phenoxy}ethyl)-2-oxo-1,2-dihydrospiro[indole-3,4′-piperidine]-5-carbonitrile]
AC50 (APOL1 G2): 1.74 µM
EC50 [1, 2]: 0.397 µM

CN=S(C)(=O)c1ccc(OCCN2CCC3(CC2)C(=O)Nc2ccc(C#N)cc23)cc1 (single isomer, unassigned) [Compound 152, (R) or (S)-1′-(2-{4-[methyl(methylimino)oxo-λ^6-sulfanyl]phenoxy}ethyl)-2-oxo-1,2-dihydrospiro[indole-3,4′-piperidine]-5-carbonitrile]
AC50 (APOL1 G2): 1.82 µM
EC50 ([1]; HEK293 overexpressing APOL1 G2): 0.405 µM

O=C1Nc2ccc(Cl)cc2C12CCN(CCOc1ccc(C3CCCS3(=O)=O)cc1)CC2 (single isomer, unassigned) [Compound 176, (S) or (R)-2-[4-(2-{5-chloro-2-oxo-1,2-dihydrospiro[indole-3,4′-piperidin]-1′-yl}ethoxy)phenyl]-1λ^6-thiolane-1,1-dione]
AC50 (APOL1 G2): 0.547 µM
EC50 [1, 2]: 0.0469 µM

O=C1Nc2ccc(Cl)cc2C12CCN(CCOc1ccc(C3CCCS3(=O)=O)cc1)CC2 (single isomer, unassigned) [Compound 177, (R) or (S)-2-[4-(2-{5-chloro-2-oxo-1,2-dihydrospiro[indole-3,4′-piperidin]-1′-yl}ethoxy)phenyl]-1λ^6-thiolane-1,1-dione]
AC50 (APOL1 G2): 0.67 µM
EC50 ([1]; HEK293 overexpressing APOL1 G2): 0.0782 µM

CS(=O)(=O)c1ccc(OCCN2CCC3(CC2)C(=O)Nc2c(C#N)cc(Cl)cc23)cc1 [Compound 9, 5-chloro-1′-[2-(4-methanesulfonylphenoxy)ethyl]-2-oxo-1,2-dihydrospiro[indole-3,4′-piperidine]-7-carbonitrile]
AC50 (APOL1 G2): 1.31 µM
EC50 [1, 2]: 1.76 µM

CS(=O)(=O)CCCn1ncc2cc(OCCN3CCC4(CC3)C(=O)Nc3ccc(Cl)cc34)ccc21 [Compound 14, 5-chloro-1′-(2-{[1-(3-methanesulfonylpropyl)-1H-indazol-5-yl]oxy}ethyl)-1,2-dihydrospiro[indole-3,4′-piperidin]-2-one]
AC50 (APOL1 G2): 0.704 µM
EC50 [1, 2]: 0.13 µM

O=C1Nc2ccc(Cl)cc2C12CCN(CCOc1ccc3c(cnn3C3COC3)c1)CC2 [Compound 15, 5-chloro-1′-(2-{[1-(oxetan-3-yl)-1H-indazol-5-yl]oxy}ethyl)-1,2-dihydrospiro[indole-3,4′-piperidin]-2-one]
AC50 (APOL1 G2): 0.654 µM
EC50 [1, 2]: 0.124 µM

CC(C)n1ncc2cc(OCCN3CCC4(CC3)C(=O)Nc3ccc(Cl)cc34)ccc21 [Compound 16, 5-chloro-1′-(2-{[1-(propan-2-yl)-1H-indazol-5-yl]oxy}ethyl)-1,2-dihydrospiro[indole-3,4′-piperidin]-2-one]
AC50 (APOL1 G2): 1.16 µM
EC50 [1, 2]: 0.112 µM
